Experimental data from US20100249179A1, “Farnesoid X Receptor Agonists” (SMITHKLINE BEECHAM CORPORATION, priority 2007, published 2010).
Where two headings read alike, the source gives them in different places.

How the values were obtained:
[1] = target: T1, Human FXRα Ligand Binding Domain (Homo sapiens, UniProt Q96RI1); test: FXR Cofactor Binding Assay (time resolved fluorescence, SRC-1 peptide recruitment); format: biochemical; conditions: read-out: Activity (pEC50) (converted)
T1 construct: polyhistidine (pRSET-A vector leader) (N); made in house; host or cells: E. coli BL21 (DE3), pRSET-A vector
T1 sequence (Q96RI1 237-472 isoform Q96RI1-2): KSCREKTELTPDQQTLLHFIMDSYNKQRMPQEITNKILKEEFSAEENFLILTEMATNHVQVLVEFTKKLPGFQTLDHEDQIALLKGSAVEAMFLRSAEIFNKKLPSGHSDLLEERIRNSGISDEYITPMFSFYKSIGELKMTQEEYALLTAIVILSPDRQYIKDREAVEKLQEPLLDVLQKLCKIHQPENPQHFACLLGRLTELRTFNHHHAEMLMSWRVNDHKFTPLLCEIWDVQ
Excerpt: Determination of a ligand mediated cofactor peptide interaction to quantify ligand binding to the nuclear receptor Farnesoid X Receptor (FXR). The method measures the ability of putative ligands to modulate the interaction between the purified bacterial expressed FXRα ligand binding domain (LBD) and a synthetic biotinylated peptide based on residues 676-700 of steroid receptor coactivator-1 (SRC-1) (LXXLL-containing domain-2 where L is the amino acid leucine and X indicates any other amino acid (LCD2), 676-700). The sequence of the SRC-1 peptide used is as published in Iannone, M. A., et al., 2001 Cytometry 44:326-337 where the N-terminus was biotinylated (B) and the C-terminus was amidated. Detection of the associated complex was measured by time resolved fluorescence (TRF). The purified LBD of FXR was labeled with biotin then mixed with stoichiometric amounts of allophycocyanin (APC) labeled streptavidin (Molecular Probes). The biotinylated peptide was then mixed with a ½ stoichiometric amount of europium labeled streptavidin (Wallac Inc). Each was then blocked with a 5 fold excess of biotin and allowed to equilibrate for 15 min. Equimolar amounts of receptor and peptide were mixed together and were allowed to equilibrate for at least 30 min prior to the addition to either a variable or constant concentrations of the sample for which the affinity is to be determined. After equilibration, the time-resolved fluorescent signal was quantitated using a fluorescent plate reader. The affinity of the test compound was estimated from a plot of fluorescence versus concentration of test compound added.
A basal level of FXR: peptide formation is observed in the absence of added ligand. Ligands that promote the complex formation induce a concentration-dependent increase in time-resolved fluorescent signal. Compounds which bind equally well to both monomeric FXR and to the FXR: peptide complex would be expected to give no change in signal, whereas ligands which bind preferentially to the monomeric receptor would be expected to induce a concentration-dependent decrease in the observed signal.
Advance Preparation: Human Farnesoid X Receptor α Ligand Binding Domain Human FXRα Ligand Binding Domain (FXRα LBD) was expressed in E. coli strain BL21 (DE3) as an amino-terminal polyhistidine tagged fusion protein. Expression was under the control of an isopropyl-β-D-thiogalactopyranoside (IPTG) inducible T7 promoter. DNA encoding this recombinant protein is subcloned into the pRSET-A expression vector (Invitrogen). The coding sequence of Human FXRα LBD was derived from Genbank accession number U 68233 (amino acids 237 to 472).
Ten-liter fermentation batches were grown in Rich PO4 media with 0.1 mg/mL Ampicillin at 25° C. for 12 hours, cooled to 9° C. and held at that temperature for 36 hours to a density of OD600=14. At this cell density, 0.25 mM IPTG is added and induction proceeded for 24 hours at 9° C., to a final OD600=16. Cells are harvested by centrifugation (20 minutes, 3500× gravity, 4° C.), and concentrated cell slurries were stored in phosphate buffered saline (PBS) at […].
Routinely, 30-40 g cell paste (equivalent to 2-3 liters of the fermentation batch) was resuspended in 200-250 mL Tris buffered saline (TBS), pH 7.2 (25 mM Tris-hydroxymethylamino methane (Tris), 150 mM sodium chloride). Cells were lysed by passing 3 times through a French Press and cell debris was removed by centrifugation (30 minutes, 20,000× gravity, 4° C.). The cleared supernatant was filtered through course pre-filters, and TBS, pH 7.2, 500 mM imidazole was added to obtain a final imidazole concentration of 50 mM. This lysate was loaded onto a column (6×8 cm) packed with Sepharose [Ni^++ charged] Chelation resin (Pharmacia) and pre-equilibrated with TBS pH 7.2/50 mM imidazole. After washing to baseline absorbance with equilibration buffer, the column was washed with one column volume of TBS pH 7.2 containing 90 mM imidazole. […]

[2] = test system: cultured HSCs; conditions: cited from earlier work
[3] = test system: rodent models of hepatic fibrosis; conditions: multiple rodent models; cited from earlier work

Row | SMILES | EC50 ([1]; class symbols) [nM] | other results
1 | CC(C)c1onc(-c2c(Cl)cccc2Cl)c1COc1ccc(-c2ccc3c(=O)cc(C(=O)O)oc3c2)cc1 [Example 16, 7-[4-({[3-(2,6-Dichlorophenyl)-5-(1-methylethyl)-4-isoxazolyl]methyl}oxy)phenyl]-4-oxo-4H-chromene-2-carboxylic Acid] | 102 to 1000 | 
2 | CCOC(=O)c1noc2cc(-c3ccc(OCc4c(-c5c(Cl)cccc5Cl)noc4C(C)C)cc3)ccc12 [Example 20, Ethyl 6-[4-({[3-(2,6-dichlorophenyl)-5-(1-methylethyl)-4-isoxazolyl]methyl}oxy)phenyl]-1,2-benzisoxazole-3-carboxylate] |  | EC50 ([1]; given as numeric bound): > 20000 nM
3 | CC[C@H]1[C@@H](O)[C@@H]2[C@H](CC[C@]3(C)[C@@H]([C@H](C)CCC(=O)O)CC[C@@H]23)[C@@]2(C)CC[C@@H](O)C[C@@H]12 [Example 6EtCDCA, 6-ethyl-chenodeoxycholic acid] |  | expression of fibrotic markers such as α-smooth muscle actin and α1(I) collagen [2]: decreased; hepatic fibrosis [3]: prevent development and promote resolution
4 | CC(C)c1onc(-c2c(Cl)cccc2Cl)c1COc1ccc(-c2ccc3sc(C(=O)O)cc3n2)cc1 [Example 10, 5-[4-({[3-(2,6-Dichlorophenyl)-5-(1-methylethyl)-4-isoxazolyl]methyl}oxy)phenyl]thieno[3,2-b]pyridine-2-carboxylic Acid] | 102 to 1000 | 
5 | CC(C)c1onc(-c2c(Cl)cccc2Cl)c1COc1ccc(-c2ccc3cc(C(=O)O)[nH]c3c2)cc1 [Example 5, 6-[4-({[3-(2,6-Dichlorophenyl)-5-(1-methylethyl)-4-isoxazolyl]methyl}oxy)phenyl]-1H-indole-2-carboxylic Acid] | 102 to 1000 | 
6 | CC(C)c1onc(-c2c(Cl)cccc2Cl)c1COc1ccc(-c2ccc3c(C(=O)O)csc3c2)cc1 [Example 11, 6-[4-({[3-(2,6-Dichlorophenyl)-5-(1-methylethyl)-4-isoxazolyl]methyl}oxy)phenyl]-1-benzothiophene-3-carboxylic Acid] | < 100 | 
7 | CC(C)c1onc(-c2c(Cl)cccc2Cl)c1COc1ccc(-c2ccc3c(c2)CCC3(O)C(=O)O)cc1 (centres unmarked) [Example 7, 5-[4-({[3-(2,6-Dichlorophenyl)-5-(1-methylethyl)-4-isoxazolyl]methyl}oxy)phenyl]-1-hydroxy-2,3-dihydro-1H-indene-1-carboxylic Acid] | 102 to 1000 | 
8 | CC(C)c1onc(-c2c(Cl)cccc2Cl)c1COc1ccc(-c2ccc3c(c2)CC(C(=O)O)C3)cc1 (centres unmarked) [Example 6, 5-[4-({[3-(2,6-Dichlorophenyl)-5-(1-methylethyl)-4-isoxazolyl]methyl}oxy)phenyl]-2,3-dihydro-1H-indene-2-carboxylic Acid] | 102 to 1000 | 
9 | CC(C)c1onc(-c2c(Cl)cccc2Cl)c1COc1ccc(-c2nc3cccc(C(=O)O)c3[nH]2)cc1 [Example 21, 2-[4-({[3-(2,6-Dichlorophenyl)-5-(1-methylethyl)-4-isoxazolyl]methyl}oxy)phenyl]-1H-benzimidazole-4-carboxylic Acid] | 1020 to 10000 | 
10 | CC(C)c1onc(-c2c(Cl)cccc2Cl)c1COc1ccc(Sc2cccc3sc(C(=O)O)cc23)cc1 [Example 19, 4-{[4-({[3-(2,6-Dichlorophenyl)-5-(1-methylethyl)-4-isoxazolyl]methyl}oxy)phenyl]thio}-1-benzothiophene-2-carboxylic Acid] | 102 to 1000 | 

Second part, led by results:

Row | EC50 ([1]; class symbols) [nM] | SMILES | other results
11 | 1020 to 10000 | CC(C)c1onc(-c2c(Cl)cccc2Cl)c1COc1ccc(-c2ccc3c(C(=O)O)n[nH]c3c2)cc1 [Example 8, 6-[4-({[3-(2,6-Dichlorophenyl)-5-(1-methylethyl)-4-isoxazolyl]methyl}oxy)phenyl]-1H-indazole-3-carboxylic Acid] | 
12 | 102 to 1000 | CC(C)c1onc(-c2c(Cl)cccc2Cl)c1COc1ccc(-c2ccc3c(C(=O)O)c[nH]c3c2)cn1 [Example 13, 6-[6-({[3-(2,6-Dichlorophenyl)-5-(1-methylethyl)-4-isoxazolyl]methyl}oxy)-3-pyridinyl]-1H-indole-3-carboxylic Acid] | 
13 | < 100 | CC(C)c1onc(-c2c(Cl)cccc2Cl)c1COc1ccc(-c2ccc3oc(C(=O)O)cc3c2)cc1 [Example 4, 5-[4-({[3-(2,6-Dichlorophenyl)-5-(1-methylethyl)-4-isoxazolyl]methyl}oxy)phenyl]-1-benzofuran-2-carboxylic Acid] | 
14 | < 100 | CC(C)c1onc(-c2c(Cl)cccc2Cl)c1COc1ccc(-c2ccc3[nH]c(C(=O)O)cc3c2)cc1 [Example 1, 5-[4-({[3-(2,6-Dichlorophenyl)-5-(1-methylethyl)-4-isoxazolyl]methyl}oxy)phenyl]-1H-indole-2-carboxylic Acid] | 
15 | 102 to 1000 | CC(C)c1onc(-c2c(Cl)cccc2Cl)c1COc1ccc(-c2ccc3c(C(=O)O)cc(=O)oc3c2)cc1 [Example 15, 7-[4-({[3-(2,6-Dichlorophenyl)-5-(1-methylethyl)-4-isoxazolyl]methyl}oxy)phenyl]-2-oxo-2H-chromene-4-carboxylic Acid] | 
16 | 102 to 1000 | CC(C)c1onc(-c2c(Cl)cccc2Cl)c1COc1ccc(-c2ccc3c(c2)CCCC3C(=O)O)cc1 (centres unmarked) [Example 17, 6-[4-({[3-(2,6-Dichlorophenyl)-5-(1-methylethyl)-4-isoxazolyl]methyl}oxy)phenyl]-1,2,3,4-tetrahydro-1-naphthalenecarboxylic Acid] | 
17 | < 100 | CC(C)c1onc(-c2c(Cl)cccc2Cl)c1COc1ccc(-c2ccc3oc(C(=O)O)cc(=O)c3c2)cc1 [Example 14, 6-[4-({[3-(2,6-Dichlorophenyl)-5-(1-methylethyl)-4-isoxazolyl]methyl}oxy)phenyl]-4-oxo-4H-chromene-2-carboxylic Acid] | 
18 | 102 to 1000 | CC(C)c1onc(-c2c(Cl)cccc2Cl)c1COc1ccc(-c2ccc3sc(C(=O)O)cc3c2)cc1 [Example 12, 5-[4-({[3-(2,6-Dichlorophenyl)-5-(1-methylethyl)-4-isoxazolyl]methyl}oxy)phenyl]-1-benzothiophene-2-carboxylic Acid] | 
19 | 102 to 1000 | CC(C)c1onc(-c2c(Cl)cccc2Cl)c1COc1ccc(-c2ccc3c(c2)C(C(=O)O)CC3)cc1 (centres unmarked) [Example 2, 6-[4-({[3-(2,6-Dichlorophenyl)-5-(1-methylethyl)-4-isoxazolyl]methyl}oxy)phenyl]-2,3-dihydro-1H-indene-1-carboxylic Acid] | 
20 | < 100 | CC(C)c1onc(-c2c(Cl)cccc2Cl)c1COc1ccc(-c2ccc3c(C(=O)O)c[nH]c3c2)cc1 [Example 3, 6-[4-({[3-(2,6-Dichlorophenyl)-5-(1-methylethyl)-4-isoxazolyl]methyl}oxy)phenyl]-1H-indole-3-carboxylic Acid] | 
21 | 1020 to 10000 | CC(C)c1onc(-c2c(Cl)cccc2Cl)c1COc1ccc(-c2csc3ccc(C(=O)O)cc23)cc1 [Example 9, 3-[4-({[3-(2,6-Dichlorophenyl)-5-(1-methylethyl)-4-isoxazolyl]methyl}oxy)phenyl]-1-benzothiophene-5-carboxylic Acid] | 
22 | 102 to 1000 | CC(C)c1onc(-c2c(Cl)cccc2Cl)c1COc1ccc(Nc2cccc3ccc(C(=O)O)cc23)cc1 [Example 18, 8-{[4-({[3-(2,6-Dichlorophenyl)-5-(1-methylethyl)-4-isoxazolyl]methyl}oxy)phenyl]amino}-2-naphthalenecarboxylic Acid] | 
